The values below come from PubChem BioAssay AID330 (DTP/NCI, 2004).

In this experiment the test system is P388 leukemia ip, CD2F1 mice, survival T/C. The experiment is described as follows: NCI In Vivo Anticancer Drug Screen. Data for tumor model P388 Leukemia (intraperitoneal) in CD2F1 (CDF1) mice. Conditions: endpoint: median survival time, higher = longer survival. Summed up: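 Mice carrying the transplanted tumor received test compound or vehicle. Survival was recorded in each group, and the value is the treated-group measurement divided by that of the vehicle-treated control group.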

The mark [1] stands for this setting: dose: 12.5 mg/kg/injection, schedule: Q01DX009 (ip), vehicle: saline with Tween-80.
[2] abbreviates: dose: 25.0 mg/kg/injection, schedule: Q01DX009 (ip), vehicle: saline with Tween-80.
[3] abbreviates: dose: 50.0 mg/kg/injection, schedule: Q01DX009 (ip), vehicle: saline with Tween-80.
Setting [4] is: dose: 50.0 mg/kg/injection, schedule: Q01DX009 (ip), vehicle: Klucel (hydroxypropylcellulose) (HPC).
Setting [5] is: dose: 100.0 mg/kg/injection, schedule: Q01DX009 (ip), vehicle: Klucel (hydroxypropylcellulose) (HPC).
Where [6] appears, read: dose: 200.0 mg/kg/injection, schedule: Q01DX009 (ip), vehicle: Klucel (hydroxypropylcellulose) (HPC).
Setting [7] is: dose: 50.0 mg/kg/injection, schedule: Q01DX005 (ip), vehicle: saline with Tween-80.
The mark [8] stands for this setting: dose: 100.0 mg/kg/injection, schedule: Q01DX005 (ip), vehicle: saline with Tween-80.
The mark [9] stands for this setting: dose: 200.0 mg/kg/injection, schedule: Q01DX005 (ip), vehicle: saline with Tween-80.
[10] abbreviates: dose: 12.5 mg/kg/injection, schedule: Q01DX009 (ip), vehicle: saline.
Setting [11] is: dose: 50.0 mg/kg/injection, schedule: Q01DX009 (ip), vehicle: saline.

Where “and” joins values, the source holds several entries; their conditions need not be identical. Identical values can stand only once. Inconclusive results and toxic doses are left out.

With `C=Cc1cc(OCC)c(OC)c2ccc3ccc(OC)c(OC)c3c12`, the T/C was 95 % of control (dose: 100.0 mg/kg/injection, schedule: Q01DX001 (ip), vehicle: Klucel (hydroxypropylcellulose) (HPC)); 103 % of control (dose: 200.0 mg/kg/injection, schedule: Q01DX001 (ip), vehicle: Klucel (hydroxypropylcellulose) (HPC)); 92 % of control (dose: 400.0 mg/kg/injection, schedule: Q01DX001 (ip), vehicle: Klucel (hydroxypropylcellulose) (HPC)).
Turning to `COc1cc2c(cc1OC)C1CC(OC(=O)c3ccccc3)(c3nccc4cc(OC)c(OC)cc34)CCN1CC2` (stereo not drawn), the T/C reads like this: under setting [1], 97 % of control; under setting [2], 93 % of control; under setting [3], 95 % of control and 97 % of control.
As for `COC(=O)C(=O)C(C#N)c1ccc(OC)c(OC)c1` (stereo not drawn), the T/C (dose: 60.0 mg/kg/injection, schedule: Q01DX005 (ip), vehicle: saline with Tween-80) is 99 % of control; the T/C (dose: 120.0 mg/kg/injection, schedule: Q01DX005 (ip), vehicle: saline with Tween-80) was 104 % of control; the T/C (dose: 240.0 mg/kg/injection, schedule: Q01DX005 (ip), vehicle: saline with Tween-80) was 95 % of control.
Regarding `C[N+]1(C)CCCC(C(=O)c2ccccc2)C1` (stereo not drawn), the T/C was 119 % of control (dose: 3.75 mg/kg/injection, schedule: Q01DX005 (ip), vehicle: saline); 108 % of control (dose: 7.5 mg/kg/injection, schedule: Q01DX005 (ip), vehicle: saline); 103 % of control (dose: 15.0 mg/kg/injection, schedule: Q01DX005 (ip), vehicle: saline); 100 % of control and 101 % of control (dose: 30.0 mg/kg/injection, schedule: Q01DX005 (ip), vehicle: saline).
For the compound `CCCC1C(=O)N2C(N(C)C)=Nc3ccc(C)cc3N2C1=O` (stereo not drawn), the T/C reads like this: (dose: 50.0 mg/kg/injection, schedule: Q01DX009 (ip), vehicle: suspension in saline) 101 % of control; (dose: 100.0 mg/kg/injection, schedule: Q01DX009 (ip), vehicle: suspension in saline) 104 % of control; (dose: 200.0 mg/kg/injection, schedule: Q01DX009 (ip), vehicle: suspension in saline) 106 % of control; (dose: 400.0 mg/kg/injection, schedule: Q01DX009 (ip), vehicle: suspension in saline) 97 % of control.
For `O=C1/C(=C/c2ccccc2)CCCC12C(c1ccccc1)N2Cc1ccccc1` (stereo not drawn), the T/C by setting is: (dose: 60.0 mg/kg/injection, schedule: Q01DX005 (ip), vehicle: Klucel (hydroxypropylcellulose) (HPC)) 91 % of control; (dose: 120.0 mg/kg/injection, schedule: Q01DX005 (ip), vehicle: Klucel (hydroxypropylcellulose) (HPC)) 90 % of control; (dose: 240.0 mg/kg/injection, schedule: Q01DX005 (ip), vehicle: Klucel (hydroxypropylcellulose) (HPC)) 88 % of control.
Consider `Cc1nc(-c2ccccc2)c2c(C)[nH]c(-c3ccccc3)c2n1`, for which the T/C was 110 % of control under setting [4], 112 % of control under setting [5] and 104 % of control under setting [6].
As for `NC(=S)N/N=C/c1cc(=O)c2cc(Cl)ccc2o1`, the T/C runs as follows: under setting [7], 94 % of control; under setting [8], 93 % of control; under setting [9], 92 % of control.
As to `CCC[CH2][Sn]([CH2]CCC)([CH2]CCC)[S]C(=S)NCCNC(=S)[S][Sn]([CH2]CCC)([CH2]CCC)[CH2]CCC`, the T/C (dose: 6.25 mg/kg/injection, schedule: Q01DX010 (ip), vehicle: saline) is 120 % of control.
Take `Clc1ccc(N=Cc2ccc(C=Nc3ccc(Cl)cc3)cc2)cc1`: the T/C is 94 % of control (dose: 6.25 mg/kg/injection, schedule: Q01DX009 (ip), vehicle: Klucel (hydroxypropylcellulose) (HPC)); 91 % of control (dose: 12.5 mg/kg/injection, schedule: Q01DX009 (ip), vehicle: Klucel (hydroxypropylcellulose) (HPC)); 94 % of control (dose: 25.0 mg/kg/injection, schedule: Q01DX009 (ip), vehicle: Klucel (hydroxypropylcellulose) (HPC)).
`O=C(NC[N+]12CCO[B-]1(c1ccccc1)OCC2)c1ccccc1O` (stereo not drawn): the T/C reads like this: (dose: 50.0 mg/kg/injection, schedule: Q01DX005 (ip), vehicle: Klucel (hydroxypropylcellulose) (HPC)) 106 % of control; (dose: 100.0 mg/kg/injection, schedule: Q01DX005 (ip), vehicle: Klucel (hydroxypropylcellulose) (HPC)) 98 % of control; (dose: 200.0 mg/kg/injection, schedule: Q01DX005 (ip), vehicle: Klucel (hydroxypropylcellulose) (HPC)) 103 % of control.
In the case of `C/C(=N\NC1=NCCN1)c1cnn(C2=NCCN2)c1C`, the T/C runs as follows: (dose: 60.0 mg/kg/injection, schedule: Q01DX005 (ip), vehicle: saline) 116 % of control; (dose: 120.0 mg/kg/injection, schedule: Q01DX005 (ip), vehicle: saline) 108 % of control; (dose: 240.0 mg/kg/injection, schedule: Q01DX005 (ip), vehicle: saline) 118 % of control.
Regarding `CC(=O)CC(=O)Nc1ccccc1`, the T/C is 105 % of control under setting [10]; 94 % of control (dose: 25.0 mg/kg/injection, schedule: Q01DX009 (ip), vehicle: saline); 88 % of control under setting [11].
With `Cc1cnn(C(C(=O)c2ccccc2)c2ccccc2)c1-c1ccccc1` (stereo not drawn), the T/C is 105 % of control under setting [4], 105 % of control under setting [5] and 98 % of control under setting [6].
Consider `CC1=CC(=O)C(=O)C2=C1OC1(C2)C(C)CCC2C3(C)CCC(O)C(C)(C)C3CCC21C` (stereo not drawn), for which the T/C reads like this: (dose: 25.0 mg/kg/injection, schedule: Q01DX005 (ip), vehicle: distilled water + Tween-80) 95 % of control; (dose: 25.0 mg/kg/injection, schedule: Q01DX005 (ip), vehicle: saline with Tween-80) 95 % of control; (dose: 50.0 mg/kg/injection, schedule: Q01DX005 (ip), vehicle: distilled water + Tween-80) 115 % of control; under setting [7], 111 % of control; under setting [8], 109 % of control.
On to `COc1ccc2c3c([nH]c2c1)C(C)=NCC3`, for which the T/C runs as follows: (dose: 50.0 mg/kg/injection, schedule: Q01DX005 (ip), vehicle: saline) 100 % of control; (dose: 100.0 mg/kg/injection, schedule: Q01DX005 (ip), vehicle: saline) 105 % of control.
Consider `COc1cc(NS(C)(=O)=O)ccc1Nc1c2ccc(Cl)cc2nc2c(OC)cccc12`, for which the T/C by setting is: (dose: 3.13 mg/kg/injection, schedule: Q01DX009 (ip), vehicle: saline) 166 % of control; (dose: 6.25 mg/kg/injection, schedule: Q01DX009 (ip), vehicle: saline) 195 % of control; (dose: 6.25 mg/kg/injection, schedule: Q04DX003 (ip), vehicle: saline with Tween-80) 154 % of control; (dose: 8.25 mg/kg/injection, schedule: Q04DX003 (ip), vehicle: saline with Tween-80) 179 % of control; under setting [10], 208 % of control; (dose: 12.5 mg/kg/injection, schedule: Q04DX003 (ip), vehicle: saline with Tween-80) 170 % of control and 204 % of control. Besides, the T/C (dose: 18.75 mg/kg/injection, schedule: Q04DX003 (ip), vehicle: saline with Tween-80) is 229 % of control.
With `Cn1c([N+](=O)[O-])cnc1/C=C1/Cc2cc(OCCN3CCCCCC3)ccc2C1=O`, the T/C is 110 % of control under setting [2]; 101 % of control under setting [3]; 109 % of control (dose: 100.0 mg/kg/injection, schedule: Q01DX009 (ip), vehicle: saline with Tween-80).
`CCN(CC)CCC(CNc1c(C)cnc2cc(Cl)ccc12)c1ccc(OC)cc1` (stereo not drawn): the T/C was 105 % of control under setting [7], 105 % of control under setting [8] and 105 % of control under setting [9].
Consider `[CH3][Ge]([CH3])[c]1ccccc1`, for which the T/C reads like this: under setting [11], 101 % of control; (dose: 100.0 mg/kg/injection, schedule: Q01DX009 (ip), vehicle: saline) 95 % of control.
`Cc1cc(Nc2ccc(O)cc2)nc(N)n1`: the T/C was 105 % of control under setting [7], 99 % of control under setting [8] and 113 % of control under setting [9].
For `CCCCCCCCCCCCCCCC[N+](C)(C)CCOS(C)(=O)=O`, the T/C is 110 % of control under setting [1] and 116 % of control under setting [2].
Consider `CN1CCc2cc3c(cc2C(=O)Cc2ccc4c(c2CO1)OCO4)OCO3`, for which the T/C (dose: 2.75 mg/kg/injection, schedule: Q01DX005 (ip), vehicle: Klucel (hydroxypropylcellulose) (HPC)) is 99 % of control; the T/C (dose: 5.5 mg/kg/injection, schedule: Q01DX005 (ip), vehicle: Klucel (hydroxypropylcellulose) (HPC)) is 94 % of control; the T/C (dose: 11.0 mg/kg/injection, schedule: Q01DX005 (ip), vehicle: Klucel (hydroxypropylcellulose) (HPC)) was 96 % of control; the T/C (dose: 22.0 mg/kg/injection, schedule: Q01DX005 (ip), vehicle: Klucel (hydroxypropylcellulose) (HPC)) is 99 % of control.
